What was measured:
[1] = system: human adiponectin gene promoter; assay: Luciferase reporter screening assay in C2C12 cells stably expressing the adiponectin promoter construct; format: cell-based; conditions: for concentration at which the greatest transactivation of the target promoter was obtained (maximum activity): stable C2C12 adiponectin promoter-luciferase line, commercial activator (positive control), luciferase read 48 hours after stimulation
Experimental: To determine the luciferase activity, between 50000 and […] cells were seeded in each well and in a P24 plate in duplicate. After approximately 24 hours, the medium was removed from the cells and each well was washed with PBS 1x (because DMEM interferes in the measurement of the reporter gene activity). 100 µl of luciferase developing agent (Bright-GloTM Luciferase Assay system- Promega) were then added to each well. This reagent carries the reporter gene substrate and luminescence is generated as a product of the enzymatic reaction. […] To record the measurement of luciferase activity, the plate was shaken for 30 seconds right after adding the developing reagent and after 2 minutes, the volume was collected and transferred to a 96-well plate (P96), which was read in an illuminometer using the program with a duration of 5 seconds and the arbitrary luminescence units were recorded for each obtained clone or, in other words, for each stable cell line.
For the screening, 30000 cells per well were seeded in white P96 plates because these plates allow amplifying the luminescence signal and improving the reading. The cells were grown in 100 µl of hygromycin-free medium.
The cells were stimulated with the extracts 24 hours after the seeding in the following conditions: • cells to which only complete medium had been added (baseline transcription), • cells to which medium had been added in which the extracts to be assayed are dissolved (vehicle), • cells to which a known commercial activator of the target promoter had been added, thus having a positive control of the transcriptional activation and of the screening protocol and which are useful as a reference when screening those positive extracts increasing the activity of the promoters to be studied, because they provide an activation ratio which is calculated as follows: by dividing the average luminescence signal increase in the presence of the commercial activator by the average luminescence signal provided by the baseline activity of the target promoter in the presence of the vehicle. […]
The luciferase activity directed by the target promoters was developed 48 hours after the stimulation with the extracts, according to the protocol described in example 4, but modified such that once the medium was removed from the cells and they were washed with PBS 1x, 40 µl of luciferase developing reagent were added to each well and the plate was read after 2 minutes.
Luminescence values measured in RLUs (Relative Luciferase Units) obtained in the presence of each of the marine extracts which have been assayed were then plotted against the average luminescence signal obtained in baseline conditions (in the presence of the vehicle). […]

C2C12 cells = assay: Toxicity of the commercial activators for the cells in the screening assay; format: cell-based, Mus musculus

| Compound | concentration at which the greatest transactivation of the target promoter was obtained (maximum activity) [1] [µM] | toxicity for the cells (comparison in words) (C2C12 cells) | potency in the screening assays (comparison in words) ([1]; comparison of commercial activators of the adiponectin promoter) |
| --- | --- | --- | --- |
| CN(CCOc1ccc(CC2SC(=O)NC2=O)cc1)c1ccccn1 (centres unmarked) [rosiglitazone] | 20 | – | – |
| O=c1c(-c2ccc(O)cc2)coc2cc(O)ccc12 [daidzein] | 20 | less toxic for the cells than Genistein | more potent than RGZ |
| O=c1c(-c2ccc(O)cc2)coc2cc(O)cc(O)c12 [genistein] | 20 | – | – |

— EP2020447A1, “Method for identifying compounds modulating adiponectin gene expression” (priority 2007, dated 2009)
